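Tested at 5 concentrations; 48 h exposure; 96-well plates; endpoints linearly interpolated, else capped at highest concentration. GI50 = concentration required for 50% inhibition of growth.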 The source made the active and inactive calls. Cut-off read from the data, not from the text of the source: active = GI50 up to about 1.1 µM and inactive = higher.
Tests used:
Assay in all cases: NCI tumour cell line growth inhibition, 48 h
LXFL 529 = test system: LXFL 529
RXF 631 = test system: RXF 631
SNB-78 = test system: SNB-78
T47D = test system: T47D
KM-20L2 = test system: KM-20L2
DMS-114 = test system: DMS-114
XF498 = test system: XF498
M19-MEL = test system: M19-MEL
HOP-18 = test system: HOP-18

Measured: GI50

O=C1c2ccccc2C(=O)c2c(NCCCNCCO)ccc(NCCCNCCO)c21
inactive: LXFL 529 3.85 µM | RXF 631 17.8 µM | SNB-78 8.32 µM | T47D 8.91 µM | KM-20L2 5.51 µM | DMS-114 6.01 µM | XF498 4.67 µM | M19-MEL 4.93 µM | HOP-18 5.01 µM

Cc1cccc(C)c1NC(=O)C(C#N)C1=C(Cl)C(=O)c2ccccc2C1=O (configuration not stated)
inactive: LXFL 529 16.1 µM | RXF 631 15.4 µM | SNB-78 23.4 µM | KM-20L2 24.1 µM | DMS-114 15.3 µM | XF498 15.5 µM | M19-MEL 4.55 µM | HOP-18 12.7 µM

COC(=O)C1=C(CO)C2C=CC1C2 (configuration not stated)
inactive: LXFL 529 > 100 µM | RXF 631 > 100 µM | SNB-78 > 100 µM | KM-20L2 > 100 µM | XF498 > 100 µM | M19-MEL > 100 µM | HOP-18 > 100 µM

Cn1c(=O)c(C2c3ccccc3Oc3c2c(=O)n(C)c2ccccc32)c(O)c2ccccc21 (configuration not stated)
inactive: LXFL 529 47.9 µM | RXF 631 58.2 µM | SNB-78 53.3 µM | KM-20L2 59 µM | DMS-114 49.1 µM | XF498 26.9 µM | M19-MEL > 100 µM | HOP-18 > 100 µM

COc1cc(OC(=O)c2c(O)cc(O)c(O)c2C)cc(C)c1C(=O)Oc1cc(C)c(C(=O)O)c(O)c1
inactive: LXFL 529 > 100 µM | RXF 631 > 100 µM | SNB-78 > 100 µM | KM-20L2 > 100 µM | DMS-114 > 100 µM | XF498 > 100 µM | M19-MEL > 100 µM | HOP-18 > 100 µM

O=C(/C=C/c1ccccc1F)c1ccc(Cl)c(Cl)c1
inactive: LXFL 529 18.3 µM | RXF 631 > 53.7 µM | SNB-78 > 69.3 µM | KM-20L2 36.3 µM | DMS-114 24 µM | XF498 28.5 µM | M19-MEL 24 µM | HOP-18 16.4 µM

O=C(CC(=O)N1N=C(n2ccc3ccccc32)CC1c1ccccc1)Nc1ccc(Cl)cc1 (configuration not stated)
inactive: LXFL 529 > 100 µM | RXF 631 > 100 µM | SNB-78 > 100 µM | KM-20L2 > 100 µM | DMS-114 > 100 µM | M19-MEL > 100 µM | HOP-18 > 100 µM

C[C@]12CCCC(=O)C1(O)C[C@H](C(=O)O)CC2 (some centres not stated)
inactive: LXFL 529 > 100 µM | RXF 631 > 100 µM | KM-20L2 > 100 µM | DMS-114 > 100 µM | XF498 > 100 µM | M19-MEL > 100 µM | HOP-18 > 100 µM

Reference: ChEMBL document CHEMBL1201862, “PubChem BioAssay data set” (2004)
